Source: patent publication US7105577B2, “Antimicrobial method using a hydroxydiphenyl ether compound” (Ciba Specialty Chemicals Corporation, priority 1999, dated 2006)
≈ marks a conversion by molar mass, not a printed value. Read-outs that look alike come from different tables or passages of the source.

How the values were obtained:
Format in all cases: cell-based
[1] = tested on: Epidermophyton floccosum CBS 55384; experiment: Microbiological data (MIC); settings: Table 4
Protocol: (§1) Medium: • Nutrient agar as test agar for bacteria: • Mueller hinton agar to cultivate the aerobic bacteria • Mueller hinton bouillon for obtaining the suspension of microorganisms • Ethanol as solvent • Wilkins-Chalgren agar to cultivate the […] bacteria • Sabouraud glucose agar to cultivate the dermatophytes
(§2) Procedure: The test substances are dissolved in ethanol, and a dilution series of the compound of the formula (102) in agar are prepared. • Anaerobic bacteria and dermatophytes are activated on agar-plates, and washes off with Mueller-Hinton bouillon. Aerobic bacteria are activated in Mueller-Hinton bouillon overnight. The test germ suspension are diluted with Mueller-Hinton bouillon to a density of McFarland standard 0.5. • 10 μl of each germ suspension is dropped onto the agar plates containing the test substance, and the plates are then incubated at 37° C. for 2 days. (Aerobic bacteria are incubated at 36° C. for 72 hours, anaerobic bacteria are incubated at 30° C. for 72 hours). As controls, the bacterial suspensions are applied to agar plates without test substances.
(§3) Microbiological data of the above compounds (MIC in ppm): […]

[2] = tested on: Proteus vulgaris ATCC 6896; experiment: Microbiological data (MIC); settings: Table 4
Protocol: as §1, §2, §3

[3] = tested on: Trichophyton rubrum DSM 4167; experiment: Microbiological data (MIC); settings: Table 4
Protocol: as §1, §2, §3

[4] = tested on: Corynebacterium xerosis ATCC 373/ATCC 7711; experiment: Microbiological data (MIC); settings: Table 4
Protocol: as §1, §2, §3

[5] = tested on: Actinomyces viscosum DSM 43329; experiment: Microbiological data (MIC); settings: Table 4
Protocol: as §1, §2, §3

[6] = tested on: Selenomonas artemidis ATCC 43528; experiment: Microbiological data (MIC); settings: Table 4
Protocol: as §1, §2, §3

[7] = tested on: Corynebacterium minutissimum ATCC 23348; experiment: Microbiological data (MIC); settings: Table 4
Protocol: as §1, §2, §3

[8] = tested on: Propionibacterium acnes ATCC 11829; experiment: Microbiological data (MIC); settings: Table 4
Protocol: as §1, §2, §3

[9] = tested on: Trichophyton mentagrophytes ATCC 9553; experiment: Microbiological data (MIC); settings: Table 4
Protocol: as §1, §2, §3

[10] = tested on: Streptococcus sobrinus DSM 20742; experiment: Microbiological data (MIC); settings: Table 4
Protocol: as §1, §2, §3

[11] = tested on: Porphyromonas gingivalis DSM 20709; experiment: Microbiological data (MIC); settings: Table 4
Protocol: as §1, §2, §3

[12] = tested on: Staphylococcus epidermidis ATCC 12228; experiment: Microbiological data (MIC); settings: Table 4
Protocol: as §1, §2, §3

[13] = tested on: Staphylococcus aureus ATCC 6538; experiment: Agar incorporation test, MIC; settings: for MIC: ATCC6538
Source text: as §1
(§4) Examples of Test bacteria • Staphylococcus aureusATCC 6538 • Staphylococcus hominis DSM 20330 • Escherichia coli NCTC 8196 • Pseudomonas aeruginosa CIP A-22 • Candida albicans ATCC 10231 • Aspergillus niger ATCC 6275
as §2

[14] = tested on: Candida albicans ATCC 10231; experiment: Agar incorporation test, MIC; settings: for MIC: ATCC10231
Source text: as §1, §4, §2

[15] = tested on: Aspergillus niger ATCC 6275; experiment: Agar incorporation test, MIC; settings: for MIC: ATCC6275
Source text: as §1, §4, §2

[16] = tested on: Pseudomonas aeruginosa CIP A-22; experiment: Agar incorporation test, MIC; settings: for MIC: CIPA22
Source text: as §1, §4, §2

[17] = tested on: Escherichia coli NCTC 8196; experiment: Agar incorporation test, MIC; settings: for MIC: NCTC8196
Source text: as §1, §4, §2

[18] = tested on: Staphylococcus hominis DSM 20328; experiment: Agar incorporation test, MIC; settings: for MIC: DSM20328, Table 1, Staphylococcus hominis DSM 20328, agar incorporation, read-out: Minimum Inhibitory Concentration, SH
[19] = tested on: Malassezia furfur DSM 6171; experiment: Microbiological data (MIC); settings: DSM6171, Table 4
Protocol: as §1, §2, §3

[20] = Table 1, Candida albicans ATCC 10231, agar incorporation, read-out: Minimum Inhibitory Concentration, CA
[21] = Table 1, Aspergillus niger ATCC 6275, agar incorporation, read-out: Minimum Inhibitory Concentration, AN
[22] = Table 1, Escherichia coli NCTC 8196, agar incorporation, read-out: Minimum Inhibitory Concentration, EC
[23] = Table 1, Staphylococcus aureus ATCC 6538, agar incorporation, read-out: Minimum Inhibitory Concentration, SA
[24] = Table 1, Pseudomonas aeruginosa CIP A-22, agar incorporation, read-out: Minimum Inhibitory Concentration, PA

Structure (SMILES)	MIC [14, 20] [µg/mL]	MIC [15, 21] [µg/mL]	MIC [17, 22] [µg/mL]	MIC [18] [µg/mL]	other results
Cc1ccc(C(C)C)cc1Oc1ccc(O)cc1 [R1 = Me R2 = i-Propyl]	–	–	–	–	MIC, Epidermophyton floccosum CBS 55384 [1]: <3.125 ppm; MIC, Proteus vulgaris ATCC 6896 [2]: >200 ppm; MIC, Trichophyton rubrum DSM 4167 [3]: 5 ppm; MIC, Corynebacterium xerosis ATCC 373/ATCC 7711 [4]: 3.125 ppm; MIC, Actinomyces viscosum DSM 43329 [5]: 80 ppm; MIC, Selenomonas artemidis ATCC 43528 [6]: 10 ppm; MIC, Corynebacterium minutissimum ATCC 23348 [7]: 6.25 ppm; MIC, Propionibacterium acnes ATCC 11829 [8]: 10 ppm; MIC, Trichophyton mentagrophytes ATCC 9553 [9]: 6.25 ppm; MIC, Streptococcus sobrinus DSM 20742 [10]: 5 ppm; MIC, Porphyromonas gingivalis DSM 20709 [11]: 5 ppm; MIC, Staphylococcus epidermidis ATCC 12228 [12]: 6.25 ppm; MIC, Staphylococcus aureus ATCC 6538 ([13]; Table 4): 6.25 ppm; MIC, Candida albicans ATCC 10231 ([14]; Table 4): 12.5 ppm; MIC, Aspergillus niger ATCC 6275 ([15]; Table 4): 50 ppm; MIC, Pseudomonas aeruginosa CIP A-22 ([16]; Table 4): >200 ppm; MIC, Escherichia coli NCTC 8196 ([17]; Table 4): >200 ppm; MIC, Staphylococcus hominis DSM 20328 ([18]; Table 4): 6.25 ppm
CCCc1ccc(Oc2ccccc2)cc1O [(105)]	30 (≈ 131 µM)	30 (≈ 131 µM)	30 (≈ 131 µM)	30 (≈ 131 µM)	–
CCCCc1ccc(Oc2ccccc2)cc1O [(104)]	30 (≈ 124 µM)	60 (≈ 248 µM)	30 (≈ 124 µM)	30 (≈ 124 µM)	–
Cc1ccc(C(C)C)c(Oc2ccc(O)cc2)c1 [(118)]	50 (≈ 206 µM)	–	50 (≈ 206 µM)	3 (≈ 12.4 µM)	MIC [13, 23]: 5 µg/mL (≈ 20.6 µM)
Oc1ccc(Oc2ccc(CCc3ccccc3)cc2)cc1 [(123)]	–	–	–	8 (≈ 27.6 µM)	–
CCCC(=O)c1ccc(O)c(Oc2ccccc2)c1 [(109)]	120 (≈ 468 µM)	120 (≈ 468 µM)	30 (≈ 117 µM)	30 (≈ 117 µM)	–
CCC(C)c1ccccc1Oc1ccccc1O (stereo not shown) [(111)]	30 (≈ 124 µM)	120 (≈ 495 µM)	–	60 (≈ 248 µM)	–
Cc1ccc(C2CCCCC2)c(Oc2ccc(O)cc2)c1 [(119)]	–	–	–	3 (≈ 10.6 µM)	MIC [13, 23]: 3 µg/mL (≈ 10.6 µM)
CC(C)c1ccccc1Oc1ccccc1O [(112)]	60 (≈ 263 µM)	120 (≈ 526 µM)	–	60 (≈ 263 µM)	–
CCc1ccc(Oc2ccc(O)cc2)c(C(C)C)c1 [(124)]	60 (≈ 234 µM)	–	–	8 (≈ 31.2 µM)	–
Oc1ccc(Oc2ccccc2O)cc1 [(117)]	–	–	60 (≈ 297 µM)	–	–
Oc1ccc(Oc2ccccc2)cc1 [(127)]	50 (≈ 269 µM)	–	100 (≈ 537 µM)	–	MIC [13, 23]: 500 µg/mL (≈ 2690 µM); MIC [16, 24]: 50 µg/mL (≈ 269 µM)
CC(C)CCc1ccc(Oc2ccc(O)cc2)cc1 [(120)]	–	–	–	4 (≈ 15.6 µM)	–
Cc1ccc(C)c(Oc2ccc(O)cc2)c1 [(129)]	25 (≈ 117 µM)	–	–	–	MIC [13, 23]: 50 µg/mL (≈ 233 µM); MIC [16, 24]: 25 µg/mL (≈ 117 µM)
Cc1ccc(C(C)C)cc1Oc1ccc(O)cc1 [(122)]	13 (≈ 53.6 µM)	–	–	6 (≈ 24.8 µM)	MIC [13, 23]: 6 µg/mL (≈ 24.8 µM)
Oc1ccccc1Oc1ccccc1 [(107)]	–	120 (≈ 644 µM)	30 (≈ 161 µM)	30 (≈ 161 µM)	–
Cc1ccccc1Oc1ccccc1O [(113)]	120 (≈ 599 µM)	60 (≈ 300 µM)	30 (≈ 150 µM)	30 (≈ 150 µM)	–
CCc1ccccc1Oc1ccccc1O [(115)]	120 (≈ 560 µM)	120 (≈ 560 µM)	120 (≈ 560 µM)	120 (≈ 560 µM)	–
Oc1ccc(Oc2ccc(C(F)(F)F)cc2)cc1 [(128)]	50 (≈ 197 µM)	–	50 (≈ 197 µM)	–	MIC [13, 23]: 50 µg/mL (≈ 197 µM); MIC [16, 24]: 50 µg/mL (≈ 197 µM)
Cc1ccc(C)c(Oc2ccc(O)cc2)c1 [R1 = R2 = Me]	–	–	–	–	MIC, Proteus vulgaris ATCC 6896 [2]: >200 ppm; MIC, Corynebacterium xerosis ATCC 373/ATCC 7711 [4]: 25.0 ppm; MIC, Corynebacterium minutissimum ATCC 23348 [7]: 25.0 ppm; MIC, Staphylococcus epidermidis ATCC 12228 [12]: 25.0 ppm; MIC, Staphylococcus aureus ATCC 6538 ([13]; Table 4): 50.0 ppm; MIC, Candida albicans ATCC 10231 ([14]; Table 4): 25.0 ppm; MIC, Pseudomonas aeruginosa CIP A-22 ([16]; Table 4): >200 ppm; MIC, Escherichia coli NCTC 8196 ([17]; Table 4): >200 ppm
Cc1ccc(C(C)(C)C)c(Oc2ccc(O)cc2)c1 [R1 = t-Butyl R2 = Me, 4-(2-t-Butyl-5-methylphenoxy)phenol]	–	–	–	–	MIC ([1]; Epidermophyton floccosum, CBS55384): 1.65 µg/mL (≈ 6.44 µM); MIC ([2]; Proteus vulgaris, ATCC6896): > 100 µg/mL; MIC [19]: 2.5 µg/mL (≈ 9.75 µM); MIC ([3]; Trichophyton rubrum, DSM4167): 10 µg/mL (≈ 39 µM); MIC ([4]; Corynebacterium xerosis): 3.4 µg/mL (≈ 13.3 µM); MIC ([5]; Actinomyces, DSM43329): 5 µg/mL (≈ 19.5 µM); MIC ([6]; Centipeda artemidis, ATCC43528): 5 µg/mL (≈ 19.5 µM); MIC ([7]; Corynebacterium minutissimum, ATCC23348): 3.4 µg/mL (≈ 13.3 µM); MIC ([8]; Cutibacterium acnes, ATCC11829): 5 µg/mL (≈ 19.5 µM); MIC ([9]; Trichophyton mentagrophytes, ATCC9553): 3.4 µg/mL (≈ 13.3 µM); MIC ([10]; Streptococcus sobrinus, DSM20742): 5 µg/mL (≈ 19.5 µM); MIC ([11]; Porphyromonas gingivalis, DSM20709): 1.25 µg/mL (≈ 4.88 µM); MIC ([12]; Staphylococcus epidermidis, ATCC12228): 3.4 µg/mL (≈ 13.3 µM); MIC ([13]; Staphylococcus aureus, Table 4, read-out: MIC, Staphylococcus aureus ATCC 6538): 6.75 µg/mL (≈ 26.3 µM); MIC ([14]; Candida albicans, Table 4, read-out: MIC, Candida albicans ATCC 10231): 12.5 µg/mL (≈ 48.8 µM); MIC ([15]; Aspergillus niger, Table 4, read-out: MIC, Aspergillus niger ATCC 6275): 6.75 µg/mL (≈ 26.3 µM); MIC ([16]; Pseudomonas aeruginosa, Table 4, read-out: MIC, Pseudomonas aeruginosa CIP A-22): > 100 µg/mL; MIC ([17]; Escherichia coli, Table 4, read-out: MIC, Escherichia coli NCTC 8196): > 100 µg/mL
CCC(C)c1ccccc1Oc1cccc(O)c1 (stereo not shown) [(116)]	30 (≈ 124 µM)	30 (≈ 124 µM)	–	30 (≈ 124 µM)	–
CCCc1ccc(Oc2ccc(O)cc2)cc1 [(125)]	30 (≈ 131 µM)	–	120 (≈ 526 µM)	30 (≈ 131 µM)	–
Cc1ccc(C(C)(C)C)c(Oc2ccc(O)cc2)c1 [(121)]	13 (≈ 50.7 µM)	–	–	5 (≈ 19.5 µM)	MIC [13, 23]: 7 µg/mL (≈ 27.3 µM)
CC(C)(C)c1ccccc1Oc1ccccc1O [(114)]	60 (≈ 248 µM)	120 (≈ 495 µM)	30 (≈ 124 µM)	30 (≈ 124 µM)	–
CCC(=O)c1ccc(O)c(Oc2ccccc2)c1 [(108)]	–	–	120 (≈ 495 µM)	60 (≈ 248 µM)	–
O=Cc1ccc(O)c(Oc2ccccc2)c1 [(110)]	–	–	30 (≈ 140 µM)	–	–
CCCCCc1ccc(Oc2ccccc2)cc1O [(106)]	60 (≈ 234 µM)	60 (≈ 234 µM)	30 (≈ 117 µM)	30 (≈ 117 µM)	–
CCc1ccc(Oc2ccc(O)cc2)cc1 [(126)]	120 (≈ 560 µM)	–	120 (≈ 560 µM)	120 (≈ 560 µM)	–
CCCc1ccc(Oc2ccc(O)cc2)c(C(C)C)c1 [(130)]	20 (≈ 74 µM)	–	–	–	MIC [13, 23]: 50 µg/mL (≈ 185 µM); MIC [16, 24]: 20 µg/mL (≈ 74 µM)
